Values quoted from earlier work, collected in paper PMC3082041 (Cancer Chemotherapy and Pharmacology, 2010).

Tested on: patients
Settings: treated with Imatinib; cited from earlier work

Structure (SMILES): Cc1ccc(NC(=O)c2ccc(CN3CCN(C)CC3)cc2)cc1Nc1nccc(-c2cccnc2)n1 [Imatinib]
- patients with grade 3/4 edema: 7%
